Consider 15 compounds from patent US10617680B2 (CELGENE QUANTICEL RESEARCH, INC., priority 2017, dated 2020).

The test deals with CBP (Homo sapiens (Human), UniProt Q92793). The experiment in a line: In vitro CBP inhibition (AlphaScreen, biotinylated H4-tetraacetyl peptide). The format is binding. The following applies: AlphaScreen, Table 29; read-out: CBP IC50. A digest of the protocol: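 His-tagged CBP expressed in E. coli (50 nM final) incubated with biotinylated H4K5/8/12/16(Ac) peptide (20 nM final) in 50 mM HEPES pH 7.3, 10 mM NaCl, 0.25 mM TCEP, 0.1% BSA, 0.005% Brij-35, 0.4% DMSO, 20 min at room temp.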
Chain of CBP (Q92793 1081-1197): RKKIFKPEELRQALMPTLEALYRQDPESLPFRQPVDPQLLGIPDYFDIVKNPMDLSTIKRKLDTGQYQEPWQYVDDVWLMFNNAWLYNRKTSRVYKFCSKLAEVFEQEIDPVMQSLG

By IC50 is commonly meant the concentration that gives 50% inhibition. Take `COCCNc1ncc(-c2cc(=O)n(C)cc2-c2cnn(-c3ccccc3C#N)c2)cn1` [Example 324, 2-(4-(4-(2-((2-methoxyethyl)amino)pyrimidin-5-yl)-1-methyl-6-oxo-1,6-dihydropyridin-3-yl)-1H-pyrazol-1-yl)benzonitrile]: the half-maximal inhibitory concentration (IC50) was below 500 nM. The value for `Cn1cc(-c2cnn(Cc3ccccc3)c2)c(-c2ccncc2)cc1=O` [Example 124, 5-(1-benzyl-1H-pyrazol-4-yl)-1-methyl-[4,4′-bipyridin]-2(1H)-one] was below 500 nM; that for `C[C@H](c1ccccc1)n1cc(-c2cn(C)c(=O)cc2N2CCCC2)cn1` [Example 55, (R)-1-methyl-5-(1-(1-phenylethyl)-1H-pyrazol-4-yl)-4-(pyrrolidin-1-yl)pyridin-2(1H)-one] was below 500 nM. The value for `CCOc1cc(=O)n(C)cc1-c1cnn(-c2ccccc2C(N)=O)c1` [Example 282, 2-(4-(4-ethoxy-1-methyl-6-oxo-1,6-dihydropyridin-3-yl)-1H-pyrazol-1-yl)benzamide] was below 500 nM. The value for `Cn1nccc1-c1cc(=O)n(C)cc1-c1cnn(Cc2ccccc2)c1` [Example 110, 5-(1-benzyl-1H-pyrazol-4-yl)-1-methyl-4-(1-methyl-1H-pyrazol-5-yl)pyridin-2(1H)-one] was 500 to 5000 nM; that for `CC(C)Oc1cc(=O)n(C)cc1-c1cnn(-c2ccccc2C(=O)O)c1` [Example 203, 2-[4-(4-Isopropoxy-1-methyl-6-oxo-1,6-dihydro-pyridin-3-yl)-pyrazol-1-yl]-benzoic Acid] was below 500 nM. `Cn1ccc(-c2cc(=O)n(C)cc2-c2cnn(-c3ccccc3S(C)(=O)=O)c2)cc1=O` [Example 284, 5-[1-(2-Methanesulfonyl-phenyl)-1H-pyrazol-4-yl]-1,1′-dimethyl-1H,1′H-[4,4′]bipyridinyl-2,2′-dione]: the IC50 is below 500 nM.

Turning to `CCCOc1cc(=O)n(C)cc1-c1cnn(Cc2ccccc2)c1` [Example 165, 5-(1-Benzyl-1H-pyrazol-4-yl)-1-methyl-4-propoxy-1H-pyridin-2-one], the IC50 is below 500 nM. Next, `Cn1cc(-c2cnn(C3CCCCC3)c2)c(-c2ccccc2)cc1=O` [Example 125, 5-(1-cyclohexyl-1H-pyrazol-4-yl)-1-methyl-4-phenylpyridin-2(1H)-one]: below 500 nM. The value for `Cc1ccc(-c2cc(=O)n(C)cc2-c2cnn(-c3cccc(Cl)c3C#N)c2)cn1` [Example 369, 2-chloro-6-(4-(1′,6-dimethyl-6′-oxo-1′,6′-dihydro-[3,4′-bipyridin]-3′-yl)-1H-pyrazol-1-yl)benzonitrile] was below 500 nM; that for `Cn1cc(-c2cnn(-c3cccc(F)c3C#N)c2)c(-c2ccc(C(F)(F)F)nc2)cc1=O` [Example 368, 2-fluoro-6-(4-(1′-methyl-6′-oxo-6-(trifluoromethyl)-1′,6′-dihydro-[3,4′-bipyridin]-3′-yl)-1H-pyrazol-1-yl)benzonitrile] was below 500 nM.

`Cc1cc(-c2cc(=O)n(C)cc2-c2cnn(-c3ccccc3C#N)c2)c[nH]c1=O` [Example 210, 2-[4-(5,1′-Dimethyl-6,6′-dioxo-1,6,1′,6′-tetrahydro-[3,4′]bipyridinyl-3′-yl)-pyrazol-1-yl]-benzonitrile]: the IC50 was below 500 nM. In the case of `CCOc1cc(=O)n(C)cc1-c1cnn(-c2ccccc2)c1` [Example 96, 4-ethoxy-1-methyl-5-(1-phenyl-1H-pyrazol-4-yl) pyridin-2(1H)-one], the IC50 is below 500 nM. The value for `CCOc1cc(=O)n(C)cc1-c1cnn(-c2cccc(C#N)c2)c1` [Example 251, 3-(4-(4-ethoxy-1-methyl-6-oxo-1,6-dihydropyridin-3-yl)-1H-pyrazol-1-yl)benzonitrile] was below 500 nM; that for `CCOc1cc(=O)n(C)cc1-c1cnn(C2CCCN(S(C)(=O)=O)C2)c1` (stereo not drawn) [Example 181, 4-ethoxy-1-methyl-5-(1-(1-(methylsulfonyl)piperidin-3-yl)-1H-pyrazol-4-yl)pyridin-2(1H)-one] was below 500 nM.
